How the values were obtained:
Test in all cases: Kinase profiling in a biochemical assay panel (mobility shift assays and ELISA), %-inhibition at 1 μM; selectivity entropy
[1] = biological target: T1, panel of more than 300 wild-type and mutant kinases (313 kinase panel) (Homo sapiens, UniProt O14965)
T1 sequence (O14965 1-403): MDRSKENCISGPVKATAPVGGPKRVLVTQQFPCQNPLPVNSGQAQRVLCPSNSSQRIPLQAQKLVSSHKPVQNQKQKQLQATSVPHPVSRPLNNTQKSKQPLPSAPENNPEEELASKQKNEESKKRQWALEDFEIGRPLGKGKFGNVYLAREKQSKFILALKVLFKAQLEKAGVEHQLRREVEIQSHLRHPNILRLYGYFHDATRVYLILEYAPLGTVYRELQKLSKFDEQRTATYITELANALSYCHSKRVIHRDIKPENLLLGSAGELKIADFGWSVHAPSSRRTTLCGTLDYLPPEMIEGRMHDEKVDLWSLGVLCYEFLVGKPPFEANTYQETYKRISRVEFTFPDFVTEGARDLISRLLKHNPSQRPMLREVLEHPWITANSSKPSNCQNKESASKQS

[2] = biological target: panel of more than 300 wild-type and mutant kinases (313 kinase panel) (Homo sapiens, UniProt P17612)
[3] = biological target: T2, panel of more than 300 wild-type and mutant kinases (313 kinase panel) (Homo sapiens, UniProt P29320)
T2 sequence (P29320 21-983): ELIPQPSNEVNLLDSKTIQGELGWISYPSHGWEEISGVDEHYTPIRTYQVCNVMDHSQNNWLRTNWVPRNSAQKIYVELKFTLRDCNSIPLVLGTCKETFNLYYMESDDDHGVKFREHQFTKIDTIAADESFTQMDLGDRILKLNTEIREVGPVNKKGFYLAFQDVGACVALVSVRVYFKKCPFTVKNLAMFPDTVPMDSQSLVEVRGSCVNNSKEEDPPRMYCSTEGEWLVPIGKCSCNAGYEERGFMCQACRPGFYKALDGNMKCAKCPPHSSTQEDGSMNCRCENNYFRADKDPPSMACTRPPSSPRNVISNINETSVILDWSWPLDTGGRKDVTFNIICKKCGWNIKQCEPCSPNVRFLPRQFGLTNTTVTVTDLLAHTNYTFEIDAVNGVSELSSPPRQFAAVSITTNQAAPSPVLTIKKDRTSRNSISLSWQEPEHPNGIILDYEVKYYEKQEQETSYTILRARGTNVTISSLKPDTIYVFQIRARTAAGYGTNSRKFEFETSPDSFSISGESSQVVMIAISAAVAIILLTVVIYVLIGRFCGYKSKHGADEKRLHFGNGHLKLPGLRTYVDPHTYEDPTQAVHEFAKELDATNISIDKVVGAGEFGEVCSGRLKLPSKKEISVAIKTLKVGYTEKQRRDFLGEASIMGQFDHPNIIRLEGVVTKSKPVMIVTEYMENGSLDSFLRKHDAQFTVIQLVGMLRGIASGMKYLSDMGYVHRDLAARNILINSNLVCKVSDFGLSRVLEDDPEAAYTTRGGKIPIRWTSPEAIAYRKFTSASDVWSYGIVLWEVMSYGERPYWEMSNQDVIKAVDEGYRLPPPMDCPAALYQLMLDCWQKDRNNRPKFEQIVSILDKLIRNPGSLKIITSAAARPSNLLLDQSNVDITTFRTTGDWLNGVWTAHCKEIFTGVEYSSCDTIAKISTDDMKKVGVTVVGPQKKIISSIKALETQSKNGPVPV

[4] = biological target: panel of more than 300 wild-type and mutant kinases (313 kinase panel) (Homo sapiens, UniProt P45983)
Chain of panel of more than 300 wild-type and mutant kinases (313 kinase panel) (Homo sapiens, UniProt P45983) (P45983 whole entry, change not shown): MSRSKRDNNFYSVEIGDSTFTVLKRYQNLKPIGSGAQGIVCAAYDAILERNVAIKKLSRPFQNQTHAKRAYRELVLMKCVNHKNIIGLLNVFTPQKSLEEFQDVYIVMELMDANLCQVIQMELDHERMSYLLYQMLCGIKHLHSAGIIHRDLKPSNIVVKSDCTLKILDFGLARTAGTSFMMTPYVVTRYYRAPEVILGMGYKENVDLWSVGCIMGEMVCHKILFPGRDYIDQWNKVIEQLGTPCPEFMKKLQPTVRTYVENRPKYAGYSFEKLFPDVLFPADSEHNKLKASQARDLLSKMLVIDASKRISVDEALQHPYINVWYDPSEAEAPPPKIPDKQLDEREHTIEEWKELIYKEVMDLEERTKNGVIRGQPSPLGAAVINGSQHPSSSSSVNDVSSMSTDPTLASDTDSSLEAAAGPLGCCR

[5] = biological target: panel of more than 300 wild-type and mutant kinases (313 kinase panel) (Homo sapiens, UniProt P48730)
[6] = biological target: panel of more than 300 wild-type and mutant kinases (313 kinase panel) (Homo sapiens, UniProt P50613)
Chain of panel of more than 300 wild-type and mutant kinases (313 kinase panel) (Homo sapiens, UniProt P50613) (P50613 whole entry, change not shown): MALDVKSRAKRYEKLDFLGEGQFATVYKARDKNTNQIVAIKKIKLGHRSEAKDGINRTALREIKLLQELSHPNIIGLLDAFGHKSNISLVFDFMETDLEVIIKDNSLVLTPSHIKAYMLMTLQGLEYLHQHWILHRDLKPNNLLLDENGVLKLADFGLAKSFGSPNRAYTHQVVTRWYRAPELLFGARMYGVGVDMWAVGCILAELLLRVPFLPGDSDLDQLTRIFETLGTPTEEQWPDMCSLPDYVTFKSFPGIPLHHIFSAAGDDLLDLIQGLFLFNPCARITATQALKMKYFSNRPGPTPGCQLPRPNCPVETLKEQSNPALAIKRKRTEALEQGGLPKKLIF

[7] = biological target: panel of more than 300 wild-type and mutant kinases (313 kinase panel) (Homo sapiens, UniProt Q04759)
Chain of panel of more than 300 wild-type and mutant kinases (313 kinase panel) (Homo sapiens, UniProt Q04759) (Q04759 whole entry, change not shown): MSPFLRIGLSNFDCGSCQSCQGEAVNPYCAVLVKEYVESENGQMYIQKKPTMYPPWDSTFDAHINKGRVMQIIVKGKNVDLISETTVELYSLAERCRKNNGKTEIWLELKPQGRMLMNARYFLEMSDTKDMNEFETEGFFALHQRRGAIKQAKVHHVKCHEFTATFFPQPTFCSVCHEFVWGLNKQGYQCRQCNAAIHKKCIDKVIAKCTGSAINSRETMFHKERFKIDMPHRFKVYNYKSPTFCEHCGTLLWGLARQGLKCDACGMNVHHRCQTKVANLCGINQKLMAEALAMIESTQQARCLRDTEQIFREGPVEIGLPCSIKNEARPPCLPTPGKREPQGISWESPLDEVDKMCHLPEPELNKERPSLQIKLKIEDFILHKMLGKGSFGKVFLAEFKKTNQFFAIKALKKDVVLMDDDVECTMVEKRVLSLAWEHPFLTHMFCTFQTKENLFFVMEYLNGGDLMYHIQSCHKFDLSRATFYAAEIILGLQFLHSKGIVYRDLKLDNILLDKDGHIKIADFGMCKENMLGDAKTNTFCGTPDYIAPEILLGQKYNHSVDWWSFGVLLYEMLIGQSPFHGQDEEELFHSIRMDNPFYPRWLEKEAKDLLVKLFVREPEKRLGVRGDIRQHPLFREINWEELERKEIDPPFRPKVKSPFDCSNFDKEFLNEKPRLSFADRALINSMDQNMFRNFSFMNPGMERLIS

[8] = biological target: T3, panel of more than 300 wild-type and mutant kinases (313 kinase panel) (Homo sapiens, UniProt Q08881)
T3 sequence (Q08881 1-620): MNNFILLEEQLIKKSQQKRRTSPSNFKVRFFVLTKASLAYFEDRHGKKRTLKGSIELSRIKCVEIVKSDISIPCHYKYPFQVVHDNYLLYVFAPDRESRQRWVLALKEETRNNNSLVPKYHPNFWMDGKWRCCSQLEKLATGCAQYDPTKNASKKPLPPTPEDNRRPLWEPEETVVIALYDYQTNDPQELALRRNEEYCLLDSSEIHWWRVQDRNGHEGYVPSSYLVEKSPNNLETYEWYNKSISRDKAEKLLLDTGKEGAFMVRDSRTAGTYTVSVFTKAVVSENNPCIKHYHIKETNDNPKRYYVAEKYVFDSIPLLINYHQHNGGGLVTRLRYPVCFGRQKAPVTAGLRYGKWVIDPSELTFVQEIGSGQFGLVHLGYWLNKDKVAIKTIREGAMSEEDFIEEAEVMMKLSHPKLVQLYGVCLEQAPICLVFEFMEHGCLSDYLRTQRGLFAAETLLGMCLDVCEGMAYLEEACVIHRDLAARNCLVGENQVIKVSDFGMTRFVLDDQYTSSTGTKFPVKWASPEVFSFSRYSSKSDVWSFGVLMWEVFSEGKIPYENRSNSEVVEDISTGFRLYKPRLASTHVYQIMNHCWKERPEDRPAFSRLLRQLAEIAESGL

[9] = biological target: panel of more than 300 wild-type and mutant kinases (313 kinase panel) (Homo sapiens, UniProt Q96RG2)
Chain of panel of more than 300 wild-type and mutant kinases (313 kinase panel) (Homo sapiens, UniProt Q96RG2) (Q96RG2 whole entry, change not shown): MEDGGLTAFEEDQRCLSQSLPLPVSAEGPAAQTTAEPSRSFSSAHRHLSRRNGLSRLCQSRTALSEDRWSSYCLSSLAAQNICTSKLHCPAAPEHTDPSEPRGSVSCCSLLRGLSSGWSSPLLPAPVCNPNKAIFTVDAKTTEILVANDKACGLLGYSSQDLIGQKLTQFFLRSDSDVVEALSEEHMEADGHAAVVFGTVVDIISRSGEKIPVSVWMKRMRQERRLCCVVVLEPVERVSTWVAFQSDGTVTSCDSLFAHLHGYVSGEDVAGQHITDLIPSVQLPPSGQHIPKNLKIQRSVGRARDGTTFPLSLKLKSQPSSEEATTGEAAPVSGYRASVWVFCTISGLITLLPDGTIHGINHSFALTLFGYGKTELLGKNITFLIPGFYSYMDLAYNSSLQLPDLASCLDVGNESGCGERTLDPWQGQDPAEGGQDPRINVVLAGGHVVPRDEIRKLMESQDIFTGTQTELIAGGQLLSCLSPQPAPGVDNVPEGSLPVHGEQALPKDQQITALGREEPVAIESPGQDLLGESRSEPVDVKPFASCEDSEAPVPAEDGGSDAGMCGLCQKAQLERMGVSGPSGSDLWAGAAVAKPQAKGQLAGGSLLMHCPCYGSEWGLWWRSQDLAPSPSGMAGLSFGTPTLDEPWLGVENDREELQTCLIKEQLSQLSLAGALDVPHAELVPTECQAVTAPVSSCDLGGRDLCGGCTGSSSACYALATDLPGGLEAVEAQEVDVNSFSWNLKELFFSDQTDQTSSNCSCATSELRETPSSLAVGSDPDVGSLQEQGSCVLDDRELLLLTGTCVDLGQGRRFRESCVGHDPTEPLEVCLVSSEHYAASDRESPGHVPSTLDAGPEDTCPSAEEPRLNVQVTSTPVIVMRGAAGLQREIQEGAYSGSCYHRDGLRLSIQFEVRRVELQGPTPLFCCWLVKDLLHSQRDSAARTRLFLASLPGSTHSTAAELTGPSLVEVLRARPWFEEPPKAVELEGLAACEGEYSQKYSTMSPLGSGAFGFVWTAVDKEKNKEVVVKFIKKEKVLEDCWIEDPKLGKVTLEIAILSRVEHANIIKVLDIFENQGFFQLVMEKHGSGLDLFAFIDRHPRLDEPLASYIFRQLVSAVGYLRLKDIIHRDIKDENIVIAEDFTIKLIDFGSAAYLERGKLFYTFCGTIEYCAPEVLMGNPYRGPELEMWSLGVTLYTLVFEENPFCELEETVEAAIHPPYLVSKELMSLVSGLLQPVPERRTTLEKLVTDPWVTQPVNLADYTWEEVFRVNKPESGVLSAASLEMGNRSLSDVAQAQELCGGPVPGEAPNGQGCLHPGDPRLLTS

[10] = kinase AurA/TPX2, 1 μM compound
[11] = kinase CDK7/CycH/MAT1, 1 μM compound

| Compound | %-inhibition, AurA/TPX2 [1, 10] | %-inhibition, AurA ([1]; kinase AurA, 1 μM compound) | %-inhibition of PKACα ([2]; kinase PKACα, 1 μM) | %-inhibition of EPHA3 ([3]; kinase EPHA3, compound at 1 μM) | %-inhibition of JNK1 ([4]; kinase JNK1, compound at 1 μM) | %-inhibition, CK1δ ([5]; kinase CK1δ, 1 μM compound) | %-inhibition, CDK7/CycH/MAT1 [6, 11] | %-inhibition of PKCθ ([7]; kinase PKCθ, 1 μM) | %-inhibition of ITK ([8]; kinase ITK, compound at 1 μM) | %-inhibition of PASK ([9]; kinase PASK, 1 μM) | %-inhibition of EPHA3 ([3]; 1 µM) | %-inhibition, CK1δ ([5]; 1 µM) | %-inhibition of PKCθ ([7]; 1 µM) | %-inhibition of PKACα ([2]; 1 µM) | %-inhibition, CDK7/CycH/MAT1 ([6]; 1 µM) | %-inhibition, AurA ([1]; 1 µM) | %-inhibition, AurA/TPX2 ([1]; 1 µM) | %-inhibition of JNK1 ([4]; 1 µM) | %-inhibition of ITK ([8]; 1 µM) | %-inhibition of PASK ([9]; 1 µM) |
| --- | --- | --- | --- | --- | --- | --- | --- | --- | --- | --- | --- | --- | --- | --- | --- | --- | --- | --- | --- | --- |
| CO[C@H]1C[C@@H]2CC[C@@H](C)[C@@](O)(O2)C(=O)C(=O)N2CCCC[C@H]2C(=O)O[C@H]([C@H](C)C[C@@H]2CC[C@@H](OC(=O)C(C)(CO)CO)[C@H](OC)C2)CC(=O)[C@H](C)/C=C(\C)[C@@H](O)[C@@H](OC)C(=O)[C@H](C)C[C@H](C)/C=C/C=C/C=C/1C [temsirolimus] | -3.42% | -12% | -6% | -21% | -3.71% | -5.47% | -8% | -2.62% | -1.7% | -8% | – | – | – | – | – | – | – | – | – | – |
| CS(=O)(=O)CCNCc1ccc(-c2ccc3ncnc(Nc4ccc(OCc5cccc(F)c5)c(Cl)c4)c3c2)o1 [lapatinib] | -10% | 5.59% | 0.663% | – | -6% | – | 2% | – | -1.89% | -5% | 0.372% | -3.34% | 0% | – | – | – | – | – | – | – |
| COc1cc2nccc(Oc3ccc(NC(=O)C4(C(=O)Nc5ccc(F)cc5)CC4)cc3)c2cc1OC [cabozantinib] | 29% | 54% | -4.67% | 97% | -2.85% | 0.0601% | -10% | -4.28% | 16% | -2.16% | – | – | – | – | – | – | – | – | – | – |
| N#CC[C@H](C1CCCC1)n1cc(-c2ncnc3[nH]ccc23)cn1 [ruxolitinib] | 63% | – | – | 2% | -3% | 12% | – | -1.47% | 30% | 0.47% | – | – | – | 48% | 3.25% | – | – | – | – | – |
| Cc1cn(-c2cc(NC(=O)c3ccc(C)c(Nc4nccc(-c5cccnc5)n4)c3)cc(C(F)(F)F)c2)cn1 [nilotinib] | -9% | -5.43% | – | 87% | 36% | -17% | -2.34% | -3.49% | -0.451% | -3% | – | – | – | 3.31% | – | – | – | – | – | – |
| C#Cc1cccc(Nc2ncnc3cc(OCCOC)c(OCCOC)cc23)c1 [erlotinib] | – | – | – | – | – | – | – | – | – | – | 15% | -4% | 4.46% | 4.34% | 1.22% | 29% | 1.46% | 1.68% | 6.51% | -9% |
